Calls of active or inactive are those of the source.
What was measured:
[1] = system: Escherichia coli; experiment: microbe, parasite or virus in culture
[2] = system: Escherichia coli; experiment: microbe, parasite or virus in culture; remark: listed apart in the source
[3] = system: Vero; experiment: cells; format: functional; conditions: Chlorocebus sabaeus
[4] = target: CAAX prenyl protease 2 (Saccharomyces cerevisiae S288c, UniProt Q03530); format: biochemical
[5] = target: CAAX prenyl protease 2 (Homo sapiens, UniProt Q9Y256); experiment: human Rce1 protease inhibitors, dose response, biochemical, yeast membranes, quenched-peptide fluorescence, cherry-pick (AID 588849)
Chain of CAAX prenyl protease 2 (Homo sapiens, UniProt Q9Y256) (Q9Y256 whole entry): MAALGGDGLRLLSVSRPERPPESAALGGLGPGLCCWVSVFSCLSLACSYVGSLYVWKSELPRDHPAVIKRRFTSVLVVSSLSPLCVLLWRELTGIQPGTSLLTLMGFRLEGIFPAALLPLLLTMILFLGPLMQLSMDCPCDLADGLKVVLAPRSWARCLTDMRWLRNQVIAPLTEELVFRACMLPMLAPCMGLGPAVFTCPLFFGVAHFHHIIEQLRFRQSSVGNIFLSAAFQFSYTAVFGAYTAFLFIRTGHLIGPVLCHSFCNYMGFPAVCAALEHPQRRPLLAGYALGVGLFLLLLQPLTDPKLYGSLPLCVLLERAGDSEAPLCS

[6] = target: CAAX prenyl protease 1 (Saccharomyces cerevisiae S288c, UniProt P47154); experiment: Ste24 protease inhibitors, dose response, biochemical, S. cerevisiae, plate reader, cherry-pick (AID 488815)
Chain of CAAX prenyl protease 1 (P47154 whole entry): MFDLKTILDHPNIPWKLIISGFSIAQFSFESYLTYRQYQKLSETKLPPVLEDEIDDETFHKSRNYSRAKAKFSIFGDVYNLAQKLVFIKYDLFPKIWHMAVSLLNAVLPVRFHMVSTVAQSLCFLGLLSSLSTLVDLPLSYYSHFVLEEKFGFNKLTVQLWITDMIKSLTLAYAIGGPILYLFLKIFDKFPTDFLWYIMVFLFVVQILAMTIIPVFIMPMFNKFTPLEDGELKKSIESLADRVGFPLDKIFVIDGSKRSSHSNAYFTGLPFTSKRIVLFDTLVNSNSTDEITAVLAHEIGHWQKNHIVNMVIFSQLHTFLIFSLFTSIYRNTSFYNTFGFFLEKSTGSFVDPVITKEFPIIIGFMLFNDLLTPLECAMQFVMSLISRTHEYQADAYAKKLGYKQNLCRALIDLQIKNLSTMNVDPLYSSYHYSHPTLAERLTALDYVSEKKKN

[7] = target: Peroxisome proliferator-activated receptor gamma/Nuclear receptor coactivator 2 (Homo sapiens, UniProt P37231); experiment: (§1) TR-FRET dose response biochemical High Throughput Screening assay for agonists of the steroid receptor coactivator 2 (SRC-2) recruitment by the peroxisome proliferator-activated receptor gamma (PPAR gamma): non-selective agonists. [Related pubchem assays: 1297, 1032 ]; format: functional
[8] = system: Vero; experiment: cells; format: functional, cell-based; conditions: Chlorocebus sabaeus
[9] = target: Peroxisome proliferator-activated receptor gamma/Nuclear receptor coactivator 1 (Homo sapiens, UniProt P37231); experiment: as §1, with “1 (SRC-1)” for “2 (SRC-2)”, “assays (depositor defined):AID1300, AID1808, AID504735, AID631]” for “assays: 1297, 1032 ]”; format: protein assay
Chain of Peroxisome proliferator-activated receptor gamma/Nuclear receptor coactivator 1 (P37231 whole entry): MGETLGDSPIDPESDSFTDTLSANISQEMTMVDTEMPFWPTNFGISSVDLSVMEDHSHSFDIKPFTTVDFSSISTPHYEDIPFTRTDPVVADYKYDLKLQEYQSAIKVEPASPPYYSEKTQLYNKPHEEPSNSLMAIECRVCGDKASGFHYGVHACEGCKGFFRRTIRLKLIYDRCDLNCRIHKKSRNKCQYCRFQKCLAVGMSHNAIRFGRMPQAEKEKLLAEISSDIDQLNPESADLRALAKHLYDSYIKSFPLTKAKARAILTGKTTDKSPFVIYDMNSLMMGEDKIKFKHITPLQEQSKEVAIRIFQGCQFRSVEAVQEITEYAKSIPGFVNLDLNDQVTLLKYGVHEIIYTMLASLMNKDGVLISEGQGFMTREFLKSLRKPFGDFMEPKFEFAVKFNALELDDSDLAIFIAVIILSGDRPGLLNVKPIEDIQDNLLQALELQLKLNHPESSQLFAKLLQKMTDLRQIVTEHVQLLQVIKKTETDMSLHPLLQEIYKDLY
Chain of Peroxisome proliferator-activated receptor gamma/Nuclear receptor coactivator 1 (Q15788 whole entry, further chain): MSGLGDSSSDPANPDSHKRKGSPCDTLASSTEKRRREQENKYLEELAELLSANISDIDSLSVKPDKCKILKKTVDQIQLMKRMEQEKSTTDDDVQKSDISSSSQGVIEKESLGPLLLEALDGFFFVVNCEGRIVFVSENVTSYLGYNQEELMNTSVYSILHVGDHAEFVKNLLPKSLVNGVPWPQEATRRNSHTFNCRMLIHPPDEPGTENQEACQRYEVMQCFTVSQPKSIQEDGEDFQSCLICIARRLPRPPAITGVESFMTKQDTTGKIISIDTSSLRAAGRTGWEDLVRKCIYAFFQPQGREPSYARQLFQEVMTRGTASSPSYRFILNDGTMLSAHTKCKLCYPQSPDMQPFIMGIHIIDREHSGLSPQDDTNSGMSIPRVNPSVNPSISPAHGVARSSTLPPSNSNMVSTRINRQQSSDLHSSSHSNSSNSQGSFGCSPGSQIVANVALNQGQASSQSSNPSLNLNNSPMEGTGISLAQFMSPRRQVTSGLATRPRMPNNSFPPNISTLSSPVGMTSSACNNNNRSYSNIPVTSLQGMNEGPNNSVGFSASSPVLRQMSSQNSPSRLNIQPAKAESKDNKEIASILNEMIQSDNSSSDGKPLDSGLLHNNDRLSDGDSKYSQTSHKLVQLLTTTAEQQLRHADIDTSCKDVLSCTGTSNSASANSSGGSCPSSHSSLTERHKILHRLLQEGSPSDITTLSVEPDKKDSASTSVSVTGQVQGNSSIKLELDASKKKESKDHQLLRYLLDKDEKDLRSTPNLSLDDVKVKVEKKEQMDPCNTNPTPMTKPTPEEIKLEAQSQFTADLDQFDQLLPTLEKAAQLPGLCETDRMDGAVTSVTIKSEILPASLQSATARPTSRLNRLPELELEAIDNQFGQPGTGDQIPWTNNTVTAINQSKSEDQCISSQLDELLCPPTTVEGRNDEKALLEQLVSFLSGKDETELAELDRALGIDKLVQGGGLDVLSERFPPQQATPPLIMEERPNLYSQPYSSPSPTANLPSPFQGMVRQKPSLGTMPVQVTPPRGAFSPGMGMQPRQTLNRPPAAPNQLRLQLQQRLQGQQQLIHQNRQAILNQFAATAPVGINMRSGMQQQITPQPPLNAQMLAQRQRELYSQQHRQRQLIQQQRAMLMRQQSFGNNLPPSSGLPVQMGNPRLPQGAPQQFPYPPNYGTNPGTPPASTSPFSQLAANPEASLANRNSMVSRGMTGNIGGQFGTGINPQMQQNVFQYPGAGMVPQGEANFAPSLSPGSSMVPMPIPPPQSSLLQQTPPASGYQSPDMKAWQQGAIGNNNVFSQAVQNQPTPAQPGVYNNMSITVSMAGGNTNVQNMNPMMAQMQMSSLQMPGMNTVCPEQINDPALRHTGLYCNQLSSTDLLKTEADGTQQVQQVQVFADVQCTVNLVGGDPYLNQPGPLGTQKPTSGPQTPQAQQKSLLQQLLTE

[10] = target: Peroxisome proliferator-activated receptor gamma/Nuclear receptor coactivator 3 (Homo sapiens, UniProt P37231); experiment: as §1, with “3 (SRC-3)” for “2 (SRC-2)”, “1301 (Confirmation screen.), 1048 (Primary screen.)]” for “1297, 1032 ]”; format: functional
[11] = Luminescence Cell-Based Dose Retest to Confirm Inhibitors of Cancer Stem Cells. [Related pubchem assays (depositor defined):AID2717, AID2721]; format: functional; conditions: Homo sapiens
[12] = NIH-3T3 fibroblast cytotoxicity, dose response, cytotoxicity control, cell-based, fluorescence, Alamar Blue, secondary assay (AID 2327); format: functional;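 further: NIH-3T3 mouse fibroblasts cultured with fluconazole at 8 µg/mL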
[13] = target: Serine/threonine-protein phosphatase (Candida dubliniensis (strain CD36 / CBS 7987 / NCPF 3949 / NRRLY-17841) (Yeast), UniProt B9W6M3); experiment: calcineurin pathway inhibitors in yeast reporter, dose response, S. cerevisiae, CDRE-lacZ, luminescence, secondary (AID 2388); format: functional, cell-based;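 further: yeast reporter cells carrying a calcineurin-responsive lacZ construct stimulated with calcium chloride; luminescent beta-galactosidase reporter signal in whole cells rather than isolated phosphatase activity; potency for inhibition where a drop in reporter signal means calcineurin blockade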
Chain of Serine/threonine-protein phosphatase (B9W6M3 whole entry): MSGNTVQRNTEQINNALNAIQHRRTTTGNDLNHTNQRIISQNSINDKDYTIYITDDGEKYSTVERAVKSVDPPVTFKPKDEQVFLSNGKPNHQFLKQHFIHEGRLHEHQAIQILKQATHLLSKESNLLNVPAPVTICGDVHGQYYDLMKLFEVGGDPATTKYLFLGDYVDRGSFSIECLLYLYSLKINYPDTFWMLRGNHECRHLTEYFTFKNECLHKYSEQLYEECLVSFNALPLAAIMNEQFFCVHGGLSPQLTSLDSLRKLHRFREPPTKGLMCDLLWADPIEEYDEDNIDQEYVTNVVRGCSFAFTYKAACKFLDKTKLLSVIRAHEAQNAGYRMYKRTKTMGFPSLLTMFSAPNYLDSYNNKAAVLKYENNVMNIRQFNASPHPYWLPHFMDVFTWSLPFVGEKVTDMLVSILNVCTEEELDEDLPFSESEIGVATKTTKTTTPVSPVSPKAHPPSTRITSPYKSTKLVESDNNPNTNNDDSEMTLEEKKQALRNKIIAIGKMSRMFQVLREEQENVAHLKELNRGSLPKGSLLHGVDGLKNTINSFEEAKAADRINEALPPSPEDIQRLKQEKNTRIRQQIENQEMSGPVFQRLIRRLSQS

[14] = target: ATP-dependent molecular chaperone HSP82 (Candida albicans (strain WO-1) (Yeast), UniProt C4YTQ8); experiment: loss of DOC-induced GRE-beta-galactosidase reporter signal, dose response, Hsp90 inhibitor project, S. cerevisiae, luminescence (AID 2400); format: functional, cell-based;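 further: beta-galactosidase luminescence from glucocorticoid response element reporter as proxy for Hsp90 function; inhibitor potency where signal loss means Hsp90 inhibition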
Chain of ATP-dependent molecular chaperone HSP82 (C4YTQ8 whole entry): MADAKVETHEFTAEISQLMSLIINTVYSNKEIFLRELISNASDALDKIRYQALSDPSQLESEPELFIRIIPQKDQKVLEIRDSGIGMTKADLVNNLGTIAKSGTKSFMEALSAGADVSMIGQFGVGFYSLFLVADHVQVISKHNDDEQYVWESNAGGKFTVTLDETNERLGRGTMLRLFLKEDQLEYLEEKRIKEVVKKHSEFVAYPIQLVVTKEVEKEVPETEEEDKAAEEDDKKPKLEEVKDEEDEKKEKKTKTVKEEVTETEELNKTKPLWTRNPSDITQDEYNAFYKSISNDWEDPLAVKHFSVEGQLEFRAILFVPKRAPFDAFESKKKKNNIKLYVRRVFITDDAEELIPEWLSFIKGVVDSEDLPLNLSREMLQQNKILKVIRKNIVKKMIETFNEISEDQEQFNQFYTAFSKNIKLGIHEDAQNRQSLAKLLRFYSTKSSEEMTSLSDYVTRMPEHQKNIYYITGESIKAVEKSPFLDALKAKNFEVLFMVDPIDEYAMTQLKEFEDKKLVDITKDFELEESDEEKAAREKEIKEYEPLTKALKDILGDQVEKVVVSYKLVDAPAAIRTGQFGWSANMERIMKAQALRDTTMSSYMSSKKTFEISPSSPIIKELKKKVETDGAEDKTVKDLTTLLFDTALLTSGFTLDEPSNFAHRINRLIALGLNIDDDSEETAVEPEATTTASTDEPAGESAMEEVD

[15] = C. albicans growth with fluconazole, confirmation, fluorescence, retest (AID 2467); format: functional, cell-based
[16] = target: Cysteine protease ATG4B (Homo sapiens, UniProt Q9Y4P1); format: functional;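 further: Fluorescence-based dose-response confirmation assay measuring inhibition of ATG4B activity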
Chain of Cysteine protease ATG4B (Q9Y4P1 whole entry): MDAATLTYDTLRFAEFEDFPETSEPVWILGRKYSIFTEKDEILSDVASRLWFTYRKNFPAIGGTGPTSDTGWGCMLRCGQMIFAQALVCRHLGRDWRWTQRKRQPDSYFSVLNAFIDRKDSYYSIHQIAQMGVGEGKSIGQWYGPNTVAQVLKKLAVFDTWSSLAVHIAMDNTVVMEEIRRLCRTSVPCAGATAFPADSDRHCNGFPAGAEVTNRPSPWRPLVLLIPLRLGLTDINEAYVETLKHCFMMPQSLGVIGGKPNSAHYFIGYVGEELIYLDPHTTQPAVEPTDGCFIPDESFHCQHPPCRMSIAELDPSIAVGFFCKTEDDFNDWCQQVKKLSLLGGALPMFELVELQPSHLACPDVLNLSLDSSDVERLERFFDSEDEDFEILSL

[17] = target: Phospholipase A2 (Homo sapiens, UniProt P04054); format: functional;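 further: confirmatory dose-response counterscreen on phospholipase A2, testing hits that came from an ultra-high-throughput screen for ATG4B inhibitors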
Chain of Phospholipase A2 (P04054 whole entry): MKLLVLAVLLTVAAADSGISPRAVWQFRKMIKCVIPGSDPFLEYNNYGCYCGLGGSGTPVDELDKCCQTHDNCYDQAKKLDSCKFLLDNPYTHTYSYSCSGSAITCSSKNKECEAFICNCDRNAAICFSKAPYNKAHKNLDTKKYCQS

Chain of CAAX prenyl protease 2 (Saccharomyces cerevisiae S288c, UniProt Q03530) (Q03530 whole entry): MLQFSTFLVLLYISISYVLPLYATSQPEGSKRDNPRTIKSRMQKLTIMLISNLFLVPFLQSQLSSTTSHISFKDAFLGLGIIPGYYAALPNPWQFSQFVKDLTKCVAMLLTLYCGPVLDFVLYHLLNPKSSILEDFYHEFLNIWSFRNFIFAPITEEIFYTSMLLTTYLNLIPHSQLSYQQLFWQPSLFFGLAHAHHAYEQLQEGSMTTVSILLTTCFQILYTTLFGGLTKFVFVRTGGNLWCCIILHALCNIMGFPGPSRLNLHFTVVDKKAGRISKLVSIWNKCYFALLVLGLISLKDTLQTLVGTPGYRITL

For `CC(C)(C)OC(=O)N1CCCC(C(=O)Nc2cccc(C(=O)NCCc3ccccc3)c2)C1` (configuration not stated), the AC50 [1] was 21.1 µM (active) and the AC50 [2] was 322 µM (active).
In the case of `CCOc1ccc(Oc2c(/C=N/NC(=O)COc3ccccc3OC)c(C)nn2-c2ccccc2)cc1`, the CC50 [3] is reported as > 25 µM (active).
With `CNC(=S)N/N=C/c1cn(Cc2c(F)cccc2Cl)c2ccccc12` the AC50 [4] was 0.818 µM (active), the AC50 [5] was 16 µM (active) and the AC50 [6] was 7.58 µM (active).
In the case of `Sc1nnc(-c2ccccn2)n1/N=C/c1ccc(-c2ccccc2Br)o1`, the EC50 [7] is reported as 2.83 µM (active), the IC50 [8] is reported as 23.4 µM (active) and the EC50 [9] is reported as 2.75 µM (active). For the same compound, the EC50 [10] was > 79.4 µM (not active).
With `Cc1cccc(C(=O)NNC2=C(C(=O)C(F)(F)F)CCC2)c1O` the AC50 [11] was 3.16 µM (active), the EC50 [12] was > 160 µM (inactive) and the EC50 [13] was > 180 µM (inactive). The EC50 [14] was 35.6 µM (active) and the EC50 [15] was 0.53 µM (active).
With `CCOC(=O)C(C)Sc1nc2ccccc2c(=O)n1CC1CCCCC1` (configuration not stated) the IC50 [16] was 2.36 µM (active) and the IC50 [17] was 2.05 µM (active).
